From patent US20250340574A1, “MODULATORS OF CYSTIC FIBROSIS TRANSMEMBRANE CONDUCTANCE REGULATOR” (Vertex Pharmaceuticals Incorporated, priority 2022, published 2025)
Where “and” joins values, the source holds several entries; their conditions need not be identical. Equal values may be shown once. Read-outs that look alike come from different tables or passages of the source.

Columns and labels:
[1] = biological target: T1, CFTR (F508del/MF-HBE cells) (Homo sapiens, UniProt P13569, DEL508-508); assay: Ussing chamber assay of CFTR-mediated short-circuit currents, Assay D (single concentration of 1 μM); assay type: cell-based; details: with 44 nM potentiator and 18 μM Tezacaftor, 18-24 hours, 20% human serum
T1 construct: human bronchial epithelial (HBE) cells derived from CF subjects heterozygous for F508del and a minimal function CFTR mutation (F508del/MF-HBE); endogenous in cells; host or cells: Primary human bronchial epithelial cells from CF subjects (F508del/MF genotype), differentiated at an air-liquid interface
T1 sequence (P13569 with tags, fused parts or gaps DEL508-508): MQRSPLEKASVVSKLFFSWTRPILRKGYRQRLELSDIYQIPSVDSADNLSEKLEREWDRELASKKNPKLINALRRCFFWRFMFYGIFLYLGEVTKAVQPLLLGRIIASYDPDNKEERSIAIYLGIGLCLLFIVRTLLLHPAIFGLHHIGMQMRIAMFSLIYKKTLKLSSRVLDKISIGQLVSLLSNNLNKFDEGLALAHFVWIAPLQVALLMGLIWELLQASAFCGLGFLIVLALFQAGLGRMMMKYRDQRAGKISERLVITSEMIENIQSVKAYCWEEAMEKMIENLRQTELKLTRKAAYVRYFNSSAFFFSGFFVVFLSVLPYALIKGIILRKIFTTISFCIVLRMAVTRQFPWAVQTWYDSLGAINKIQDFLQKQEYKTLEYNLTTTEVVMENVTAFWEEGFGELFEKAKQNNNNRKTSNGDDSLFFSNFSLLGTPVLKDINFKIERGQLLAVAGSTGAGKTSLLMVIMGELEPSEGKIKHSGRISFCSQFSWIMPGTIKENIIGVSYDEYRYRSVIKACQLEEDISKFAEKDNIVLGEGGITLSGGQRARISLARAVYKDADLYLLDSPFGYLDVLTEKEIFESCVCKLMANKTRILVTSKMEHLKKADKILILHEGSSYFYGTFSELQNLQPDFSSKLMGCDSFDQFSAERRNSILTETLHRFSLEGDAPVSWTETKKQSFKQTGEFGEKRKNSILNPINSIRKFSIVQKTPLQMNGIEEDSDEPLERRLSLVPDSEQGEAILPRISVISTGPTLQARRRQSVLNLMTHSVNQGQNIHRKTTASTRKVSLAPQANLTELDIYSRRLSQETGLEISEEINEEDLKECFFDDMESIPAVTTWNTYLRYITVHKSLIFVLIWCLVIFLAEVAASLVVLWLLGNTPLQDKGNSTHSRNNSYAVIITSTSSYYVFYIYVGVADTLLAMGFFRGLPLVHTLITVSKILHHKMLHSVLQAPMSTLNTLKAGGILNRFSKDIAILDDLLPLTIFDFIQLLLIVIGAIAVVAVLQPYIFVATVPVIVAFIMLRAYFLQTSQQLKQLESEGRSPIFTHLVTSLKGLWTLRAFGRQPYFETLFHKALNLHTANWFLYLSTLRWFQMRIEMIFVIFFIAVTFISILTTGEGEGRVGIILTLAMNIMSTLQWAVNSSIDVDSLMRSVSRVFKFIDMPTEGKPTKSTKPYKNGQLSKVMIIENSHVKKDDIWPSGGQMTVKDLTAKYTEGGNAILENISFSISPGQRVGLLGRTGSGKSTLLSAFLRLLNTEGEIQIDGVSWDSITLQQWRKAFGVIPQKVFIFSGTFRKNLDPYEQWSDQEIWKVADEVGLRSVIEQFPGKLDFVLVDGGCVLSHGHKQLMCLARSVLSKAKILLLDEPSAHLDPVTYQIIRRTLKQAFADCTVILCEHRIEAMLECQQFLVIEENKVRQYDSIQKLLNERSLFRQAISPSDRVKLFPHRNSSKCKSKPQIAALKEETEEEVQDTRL
Procedure, shortened: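 F508del/MF-HBE cells were preincubated 18–24 h at 37 °C in 20% human serum with corrector plus 18 μM tezacaftor and either 33 nM (concentration series) or 44 nM (1 μM single point) of the aminotrifluoromethyl triazatricyclic potentiator. Ussing chamber, Vhold=0 mV, 37 °C; forskolin 20 μM stimulation, CFTR ISC taken as inhibitor-cocktail-sensitive current.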

[2] = amide bond, 13-membered ring

Row | SMILES | D activity at 1 μM (%) [1] | also measured
1 | Cc1cccc(C)c1-c1cc2nc(n1)NS(=O)(=O)c1cccc(c1)C(=O)N(Cc1ccc3oc(C4(C)CC4)cc3n1)[C@H](CC13CC(C1)C3)CO2 [Compound I-225, (11R)-11-(1-Bicyclo[1.1.1]pentanylmethyl)-6-(2,6-dimethylphenyl)-12-[[2-(1-methylcyclopropyl)furo[3,2-b]pyridin-5-yl]methyl]-2,2-dioxo-9-oxa-2λ^6-thia-3,5,12,19-tetrazatricyclo[12.3.1.14,8]nonadeca-1(18),4(19),5,7,14,16-hexaen-13-one] | +++ (+++ is >60%) | ring closure, yield after HPLC ([2]; from Cc1cccc(C)c1-c1cc(OC[C@@H](CC23CC(C2)C3)NCc2ccc3oc(C4(C)CC4)cc3n2)nc(NS(=O)(=O)c2cccc(C(=O)O)c2)n1, CDMT/NMM, DMF): 61%
2 | Cc1cccc(C)c1-c1cc2nc(n1)NS(=O)(=O)c1cccc(c1)C(=O)N(Cc1cnc3oc(C(C)C)c(Cl)c3n1)[C@H](CC1(C)CC1)CO2 [Compound I-161, (11R)-12-[(7-chloro-6-isopropyl-furo[2,3-b]pyrazin-2-yl)methyl]-6-(2,6-dimethylphenyl)-11-[(1-methylcyclopropyl)methyl]-2,2-dioxo-9-oxa-2λ^6-thia-3,5,12,19-tetrazatricyclo[12.3.1.14,8]nonadeca-1(18),4(19),5,7,14,16-hexaen-13-one] | +++ (+++ is >60%) | ring closure, yield after HPLC ([2]; from Cc1cccc(C)c1-c1cc(OC[C@@H](CC2(C)CC2)NCc2cnc3oc(C(C)C)c(Cl)c3n2)nc(NS(=O)(=O)c2cccc(C(=O)O)c2)n1, CDMT/NMM, DMF, 14.9 mM, 19.0 h): 54%
3 | Cc1cccc(C)c1-c1cc2nc(n1)NS(=O)(=O)c1cccc(c1)C(=O)N(Cc1cnc3nc(C(C)C)oc3n1)[C@H](CC1(C)CC1)CO2 [Compound I-159, (11R)-6-(2,6-Dimethylphenyl)-12-[(2-isopropyloxazolo[4,5-b]pyrazin-6-yl)methyl]-11-[(I-methylcyclopropyl)methyl]-2,2-dioxo-9-oxa-2λ^6-thia-3,5,12,19-tetrazatricyclo[12.3.1.14,8]nonadeca-1(18),4(19),5,7,14,16-hexaen-13-one] | +++ (+++ is >60%) | ring closure, yield after HPLC ([2]; from Cc1cccc(C)c1-c1cc(OC[C@@H](CC2(C)CC2)NCc2cnc3nc(C(C)C)oc3n2)nc(NS(=O)(=O)c2cccc(C(=O)O)c2)n1, CDMT/NMM, DMF, 26.6 mM, 2.08 h): 26%
4 | Cc1cccc(C)c1-c1cc2nc(n1)NS(=O)(=O)c1cccc(c1)C(=O)N(Cc1cnc3nc(C4CC4)n(C)c3n1)[C@H](CC13CC(C1)C3)CO2 [Compound I-175, (11R)-11-(1-Bicyclo[1.1.1]pentanylmethyl)-12-[(2-cyclopropyl-3-methyl-imidazo[4,5-b]pyrazin-5-yl)methyl]-6-(2,6-dimethylphenyl)-2,2-dioxo-9-oxa-2λ^6-thia-3,5,12,19-tetrazatricyclo[12.3.1.14,8]nonadeca-1(18),4(19),5,7,14,16-hexaen-13-one] | +++ (+++ is >60%) | ring closure, yield after HPLC ([2]; from Cc1cccc(C)c1-c1cc(OC[C@@H](CC23CC(C2)C3)NCc2cnc3nc(C4CC4)n(C)c3n2)nc(NS(=O)(=O)c2cccc(C(=O)O)c2)n1, CDMT/NMM, DMF, 11.1 mM, 16.5 h): 28%
5 | Cc1cccc(C)c1-c1cc2nc(n1)NS(=O)(=O)c1cccc(c1)C(=O)N(Cc1cnc3oc(C4CC4)cc3n1)[C@H](C=C1CCC1)CO2 [Compound I-154, (11R)-11-(cyclobutylidenemethyl)-12-[(6-cyclopropylfuro[2,3-b]pyrazin-2-yl)methyl]-6-(2,6-dimethylphenyl)-2,2-dioxo-9-oxa-2λ^6-thia-3,5,12,19-tetrazatricyclo[12.3.1.14,8]nonadeca-1(18),4(19),5,7,14,16-hexaen-13-one] | +++ (+++ is >60%) | ring closure, yield after HPLC ([2]; from Cc1cccc(C)c1-c1cc(OC[C@@H](C=C2CCC2)NCc2cnc3oc(C4CC4)cc3n2)nc(NS(=O)(=O)c2cccc(C(=O)O)c2)n1, CDMT/NMM, DMF, 25.1 mM, 2.08 h): 14%
6 | Cc1cccc(C)c1-c1cc2nc(n1)NS(=O)(=O)c1cccc(c1)C(=O)N(Cc1cnc3oc(C(C)C)nc3n1)[C@H](CC1(C)CC1)CO2 [Compound I-149, (11R)-6-(2,6-Dimethylphenyl)-12-[(2-isopropyloxazolo[4,5-b]pyrazin-5-yl)methyl]-11-[(1-methylcyclopropyl)methyl]-2,2-dioxo-9-oxa-2λ^6-thia-3,5,12,19-tetrazatricyclo[12.3.1.14,8]nonadeca-1(18),4(19),5,7,14,16-hexaen-13-one] | +++ (+++ is >60%) | ring closure, yield after HPLC ([2]; from Cc1cccc(C)c1-c1cc(OC[C@@H](CC2(C)CC2)NCc2cnc3oc(C(C)C)nc3n2)nc(NS(=O)(=O)c2cccc(C(=O)O)c2)n1, CDMT/NMM, DMF, 23.5 mM, 2.08 h): 40%
7 | Cc1cccc(C)c1-c1cc2nc(n1)NS(=O)(=O)c1cccc(c1)C(=O)N(Cc1cnc3oc(C(C)C)c(C(F)(F)F)c3n1)[C@H](CC1(C)CC1)CO2 [Compound I-126, (11R)-6-(2,6-dimethylphenyl)-12-[[6-isopropyl-7-(trifluoromethyl)furo[2,3-b]pyrazin-2-yl]methyl]-11-[(1-methylcyclopropyl)methyl]-2,2-dioxo-9-oxa-2λ^6-thia-3,5,12,19-tetrazatricyclo[12.3.1.14,8]nonadeca-1(18),4(19),5,7,14,16-hexaen-13-one] | +++ (+++ is >60%) | ring closure, yield after HPLC ([2]; from Cc1cccc(C)c1-c1cc(OC[C@@H](CC2(C)CC2)NCc2cnc3oc(C(C)C)c(C(F)(F)F)c3n2)nc(NS(=O)(=O)c2cccc(C(=O)O)c2)n1, CDMT/NMM, DMF, 12.1 mM, 16.5 h): 36%
8 | Cc1cccc(C)c1-c1cc2nc(n1)NS(=O)(=O)c1cccc(c1)C(=O)N(Cc1cnc3oc(C(C)(C)C)cc3n1)[C@H](C[C@H]1CCCCO1)CO2 [Compound I-220, (11R)-12-[(6-tert-Butylfuro[2,3-b]pyrazin-2-yl)methyl]-6-(2,6-dimethylphenyl)-2,2-dioxo-11-[[(2R)-tetrahydropyran-2-yl]methyl]-9-oxa-2λ^6-thia-3,5,12,19-tetrazatricyclo[12.3.1.14,8]nonadeca-1(18),4(19),5,7,14,16-hexaen-13-one] | +++ (+++ is >60%) | ring closure, yield after HPLC ([2]; from Cc1cccc(C)c1-c1cc(OC[C@@H](C[C@H]2CCCCO2)NCc2cnc3oc(C(C)(C)C)cc3n2)nc(NS(=O)(=O)c2cccc(C(=O)O)c2)n1, CDMT/DIEA, DMF, 11.6 mM, 48.0 h): 70%
9 | Cc1cccc(C)c1-c1cc2nc(n1)NS(=O)(=O)c1cccc(c1)C(=O)N(Cc1cnc3oc(C4CC4)cc3n1)[C@H](Cc1ccccc1)CO2 [Compound I-191, (11R)-11-Benzyl-12-[(6-cyclopropylfuro[2,3-b]pyrazin-2-yl)methyl]-6-(2,6-dimethylphenyl)-2,2-dioxo-9-oxa-2λ^6-thia-3,5,12,19-tetrazatricyclo[12.3.1.14,8]nonadeca-1(18),4(19),5,7,14,16-hexaen-13-one] | +++ (+++ is >60%) | ring closure, yield after HPLC ([2]; from Cc1cccc(C)c1-c1cc(OC[C@@H](Cc2ccccc2)NCc2cnc3oc(C4CC4)cc3n2)nc(NS(=O)(=O)c2cccc(C(=O)O)c2)n1, CDMT/NMM, DMSO, 2.75 h): 60%
10 | Cc1cccc(C)c1-c1cc2nc(n1)NS(=O)(=O)c1cccc(c1)C(=O)N(Cc1cnc3oc(C(C)C)cc3n1)[C@H](CC1CCCOC1)CO2 (single isomer, unassigned) [Compound I-66] | +++ (+++ is >60%) | ring closure, yield after HPLC ([2]; from Cc1cccc(C)c1-c1cc(OC[C@@H](CC2CCCOC2)NCc2cnc3oc(C(C)C)cc3n2)nc(NS(=O)(=O)c2cccc(C(=O)O)c2)n1, CDMT/NMM, DMF, 11.8 mM, 72.5 h): 17% and 20%
11 | Cc1cccc(C)c1-c1cc2nc(n1)NS(=O)(=O)c1cccc(c1)C(=O)N(Cc1cnc3c(n1)CN(C(C)C)C3=O)[C@H](CC13CC(C1)C3)CO2 [III-16, (11R)-11-(1-bicyclo[1.1.1]pentanylmethyl)-6-(2,6-dimethylphenyl)-12-[(6-isopropyl-7-oxo-5H-pyrrolo[3,4-b]pyrazin-3-yl)methyl]-2,2-dioxo-9-oxa-2λ^6-thia-3,5,12,19-tetrazatricyclo[12.3.1.14,8]nonadeca-1(18),4(19),5,7,14,16-hexaen-13-one] | +++ (+++ is >60%) | ring closure, yield after HPLC ([2]; from Cc1cccc(C)c1-c1cc(OC[C@@H](CC23CC(C2)C3)NCc2cnc3c(n2)CN(C(C)C)C3=O)nc(NS(=O)(=O)c2cccc(C(=O)O)c2)n1, CDMT/NMM, DMF, 13.0 mM, 16.5 h): 39%
12 | Cc1cccc(C)c1-c1cc2nc(n1)NS(=O)(=O)c1cccc(c1)C(=O)N(Cc1nc3cc(C4(C)CC4)oc3cc1F)[C@H](CC1(C)CC1)CO2 [Compound I-234, (11R)-6-(2,6-Dimethylphenyl)-12-[[6-fluoro-2-(1-methylcyclopropyl)furo[3,2-b]pyridin-5-yl]methyl]-11-[(1-methylcyclopropyl)methyl]-2,2-dioxo-9-oxa-2λ^6-thia-3,5,12,19-tetrazatricyclo[12.3.1.14,8]nonadeca-1(18),4(19),5,7,14,16-hexaen-13-one] | +++ (+++ is >60%) | ring closure, yield after HPLC ([2]; from Cc1cccc(C)c1-c1cc(OC[C@@H](CC2(C)CC2)NCc2nc3cc(C4(C)CC4)oc3cc2F)nc(NS(=O)(=O)c2cccc(C(=O)O)c2)n1, CDMT/NMM, DMF, 25.0 °C): 57%
